Assay results taken from patent US8685976B2, “Cell adhesion promoting agent and method of promoting cell adhesion” (Kyoto University, priority 2008, dated 2014).

How the values were obtained:
[1] = tested on: Jurkat cells; assay: Cell adhesion assay by addition, Jurkat cells; assay type: cell-based, human
Protocol: 1 μL each of an aqueous solution of adhesamine (1), Type I collagen, poly-L-lysine hydrochloride, poly-L-ornithine hydrobromide, and fibronectin at a concentration of 50, 500, and 5000 μg/ml, was added to 96-well plate. 100 μL of HepG2 suspension (4×10^5 cells/mL) was added to each well. After 3-hour incubation at 37° C., non-adherent cells were removed by washing each well with PBS three times, and the attached cells were counted with a Neubauer counting chamber (Digital Bio). For Jurkat cells, 100 μL of cell suspension was added to each well at a density of 1×10^6 cells/ml. After 5-hour incubation at 37° C., non-adhered cells were removed by washing each well with PBS twice, and the attached cells were counted with a Neubauer counting chamber (Digital Bio). To calculate adhesion rates, firstly seeded cell numbers were assigned a value of 100%. As control tests, the same tests were conducted using wells supplied with only 1 μL of DMSO. Each assay was conducted in triplicate, and the means and standard derivations were calculated.
The comparison between adhesamine and its derivatives regarding cell adhesion promotion activity was conducted using Jurkat cells by way of reagent addition assay. 1 μL each of DMSO solutions of the compounds having concentrations of 60, 600, and 6000 μM were added to 96-well plates. The wells were supplied with 100 μL each of Jurkat cell suspensions (1×10^6 cells/mL). After 5-hour incubation at 37° C., non-adhered cells were removed by washing each well with PBS twice, and the attached cells were counted with a Neubauer counting chamber (Digital Bio). To calculate adhesion rates, firstly seeded cell numbers were assigned a value of 100%. As control tests, the same tests were conducted using well plates supplied with only 1 μL of DMSO. Each assay was conducted in triplicate, and the means and standard derivations were calculated.
However, since HepG2 cells have an intrinsic propensity to adhere to plastic tissue-culture plates, a test was conducted to determine whether the same effect was also obtained in the Jurkat cell line and human T-lymphocytes that are floating cells. Remarkably, 30% and 60% of the Jurkat cells attached to a culture plate in the presence of 6 and 60 μM of adhesamine, respectively (FIG. 1D). Removal of adhesamine by washing the plate twice with PBS detached the cells. 93% of Jurkat cells were released from the surface of a culture plate 24 hour after washing (FIG. 2). […] Simply adding adhesamine to the medium promoted adhesion of Jurkat cells onto culture plates, but not to each other.

[2] = tested on: Jurkat cells; assay: Visualization of actin cytoskeleton with rhodamine-conjugated phalloidin, Jurkat; assay type: cell-based, human; conditions: 6 μM
Protocol: In (A) and (B), the cell growth was determined at 24, 48, and 72 hours after the addition of adhesamine (1) (6 μM). The cell growth in the presence of 1% (v/v) DMSO was assigned a value of 100%. The data shown are means±SD for a minimum of three experiments. (C) to (F) show the rearrangement of actin filaments in HepG2 and Jurkat cells in the presence of adhesamine (6 μM). Brightfield images (C and D) and confocal images (E and F) are shown. HepG2 (C and E) or Jurkat (D and F) cells were plated for 5 hours or 3 hours, respectively, and actin cytoskeletal was visualized using rhodamine-labeled phalloidin.
Jurkat or HepG2 cells were plated onto glass coverslips in the presence of adhesamine (6 μM). They were fixed after 5 or 3 hours, respectively, with 4% paraformaldehyde for 20 minutes. The cell membrane was permeabilized by 5-min treatment with 0.1% Triton X-100 (in PBS). Samples were washed twice with PBS, and actin cytoskeleton was visualized with rhodamine-conjugated phalloidin according to the manufacturer's instructions (Invitrogen). The cell images were captured with a Yokogawa CSU22 confocal fluorescence microscope with 588-nm laser excitation.

CSc1nc(Cl)c(C=O)c(N2CC[N+]3(CC2)CC[N+]2(CCN(c4nc(SC)nc(Cl)c4C=O)CC2)CC3)n1 [adhesamine]
Jurkat cells attached to a culture plate ([1]; 6 μM in medium): 30% | Jurkat cells attached to a culture plate ([1]; 60 μM in medium): 60% | cell attachment on addition to the medium, compared with coating reagents ([1]; FIG. 12): significantly greater attachment than addition of the other coating reagents | cell-cell adhesion ([1]; added to the medium): did not induce | actin cytoskeleton structure in adhered cells [2]: well-organized cortical actin structure
